What was measured:
[1] = tested on: fungal vacuolar-type (H+)-ATPase (from Neurospora crassa); test: fungal vacuolar-type (H+)-ATPase inhibition, side-by-side test; format: biochemical
Text: The inhibitory data were obtained using the same procedures and biological preparations described in Bowman et al., Proc. Natl. Acad. Sci. USA, 85, 7972-7976 (November 1988).

[2] = tested on: ACHN; test: NCI 60 cell-line screen; format: cell-based; conditions: Homo sapiens, Kidney, averaged, quadruplicate testing, read-out: negative log10 GI50 (converted)
Text: (§1) It is the concentration where 100×(T−To)/To=−50=PG. […] Res., 34, 91-109 (1995).

[3] = tested on: SF-295; test: NCI 60 cell-line screen; format: cell-based; conditions: Homo sapiens, Brain, averaged, quadruplicate testing, read-out: negative log10 GI50 (converted)
Text: as §1

[4] = tested on: SN-12C; test: NCI 60 cell-line screen; format: cell-based; conditions: Homo sapiens, SN12C, Kidney, averaged, quadruplicate testing, read-out: negative log10 GI50 (converted)
Text: as §1

[5] = tested on: HOP-92; test: NCI 60 cell-line screen; format: cell-based; conditions: Homo sapiens, Lung, averaged, quadruplicate testing, read-out: negative log10 GI50 (converted)
Text: as §1

[6] = tested on: RXF-393; test: NCI 60 cell-line screen; format: cell-based; conditions: Homo sapiens, Kidney, averaged, quadruplicate testing, read-out: negative log10 GI50 (converted)
Text: as §1

[7] = tested on: A498; test: NCI 60 cell-line screen; format: cell-based; conditions: Homo sapiens, Kidney, averaged, quadruplicate testing, read-out: negative log10 GI50 (converted)
Text: as §1

[8] = tested on: MOLT-4; test: NCI 60 cell-line screen; format: cell-based; conditions: Homo sapiens, Leukemia, averaged, quadruplicate testing, read-out: negative log10 GI50 (converted)
Text: as §1

[9] = tested on: HS-578T; test: NCI 60 cell-line screen; format: cell-based; conditions: Homo sapiens, Breast, averaged, quadruplicate testing, read-out: negative log10 GI50 (converted)
Text: as §1

[10] = tested on: PC-3; test: NCI 60 cell-line screen; format: cell-based; conditions: Homo sapiens, Prostate, averaged, quadruplicate testing, read-out: negative log10 GI50 (converted)
Text: as §1

[11] = tested on: BT-549; test: NCI 60 cell-line screen; format: cell-based; conditions: Homo sapiens, Breast, averaged, quadruplicate testing, read-out: negative log10 GI50 (converted)
Text: as §1

[12] = tested on: HCT-15; test: NCI 60 cell-line screen; format: cell-based; conditions: Homo sapiens, Colon, averaged, quadruplicate testing, read-out: negative log10 GI50 (converted)
Text: as §1

[13] = tested on: SR; test: NCI 60 cell-line screen; format: cell-based; conditions: Homo sapiens, Leukemia, averaged, quadruplicate testing, read-out: negative log10 GI50 (converted)
Text: as §1

[14] = tested on: SK-MEL-5; test: NCI 60 cell-line screen; format: cell-based; conditions: Homo sapiens, Melanoma, averaged, quadruplicate testing, read-out: negative log10 GI50 (converted)
Text: as §1

[15] = tested on: K-562; test: NCI 60 cell-line screen; format: cell-based; conditions: Homo sapiens, K562, Leukemia, averaged, quadruplicate testing, read-out: negative log10 GI50 (converted)
Text: as §1

[16] = tested on: SK-MEL-2; test: NCI 60 cell-line screen; format: cell-based; conditions: Homo sapiens, Melanoma, averaged, quadruplicate testing, read-out: negative log10 GI50 (converted)
Text: as §1

[17] = tested on: NCI-H460; test: NCI 60 cell-line screen; format: cell-based; conditions: Homo sapiens, Lung, averaged, quadruplicate testing, read-out: negative log10 GI50 (converted)
Text: as §1

[18] = tested on: T-47D; test: NCI 60 cell-line screen; format: cell-based; conditions: Homo sapiens, T47D, Breast, averaged, quadruplicate testing, read-out: negative log10 GI50 (converted)
Text: as §1

[19] = tested on: CCRF-CEM; test: NCI 60 cell-line screen; format: cell-based; conditions: Homo sapiens, Leukemia, averaged, quadruplicate testing, read-out: negative log10 GI50 (converted)
Text: as §1

[20] = tested on: COLO 205; test: NCI 60 cell-line screen; format: cell-based; conditions: Homo sapiens, Colon, averaged, quadruplicate testing, read-out: negative log10 GI50 (converted)
Text: as §1

[21] = tested on: A549/ATCC; test: NCI 60 cell-line screen; format: cell-based; conditions: Homo sapiens, Lung, averaged, quadruplicate testing, read-out: negative log10 GI50 (converted)
Text: as §1

[22] = tested on: LOX-IMVI; test: NCI 60 cell-line screen; format: cell-based; conditions: Homo sapiens, Melanoma, averaged, quadruplicate testing, read-out: negative log10 GI50 (converted)
Text: as §1

[23] = tested on: SK-MEL-28; test: NCI 60 cell-line screen; format: cell-based; conditions: Homo sapiens, Melanoma, averaged, quadruplicate testing, read-out: negative log10 GI50 (converted)
Text: as §1

[24] = tested on: HOP-62; test: NCI 60 cell-line screen; format: cell-based; conditions: Homo sapiens, Lung, averaged, quadruplicate testing, read-out: negative log10 GI50 (converted)
Text: as §1

[25] = tested on: KM12; test: NCI 60 cell-line screen; format: cell-based; conditions: Homo sapiens, Colon, averaged, quadruplicate testing, read-out: negative log10 GI50 (converted)
Text: as §1

[26] = tested on: UACC-257; test: NCI 60 cell-line screen; format: cell-based; conditions: Homo sapiens, Melanoma, averaged, quadruplicate testing, read-out: negative log10 GI50 (converted)
Text: as §1

[27] = tested on: SF-268; test: NCI 60 cell-line screen; format: cell-based; conditions: Homo sapiens, Brain, averaged, quadruplicate testing, read-out: negative log10 GI50 (converted)
Text: as §1

[28] = tested on: IGROV1; test: NCI 60 cell-line screen; format: cell-based; conditions: Homo sapiens, IGROV-1, Ovary, averaged, quadruplicate testing, read-out: negative log10 GI50 (converted)
Text: as §1

[29] = tested on: OVCAR-8; test: NCI 60 cell-line screen; format: cell-based; conditions: Homo sapiens, Ovary, averaged, quadruplicate testing, read-out: negative log10 GI50 (converted)
Text: as §1

[30] = tested on: HCT-116; test: NCI 60 cell-line screen; format: cell-based; conditions: Homo sapiens, Colon, averaged, quadruplicate testing, read-out: negative log10 GI50 (converted)
Text: as §1

[31] = tested on: MDA-N; test: NCI 60 cell-line screen; format: cell-based; conditions: Homo sapiens, Breast, averaged, quadruplicate testing, read-out: negative log10 GI50 (converted)
Text: as §1

[32] = tested on: 786-0; test: NCI 60 cell-line screen; format: cell-based; conditions: Homo sapiens, Kidney, averaged, quadruplicate testing, read-out: negative log10 GI50 (converted)
Text: as §1

## CC/C=C\C=C/C(=O)N/C=C/CC1CC(O)C(C)C/C=C/Cc2cccc(O)c2C(=O)O1 (centres unmarked) [salicylihalamide A]
[1]
  inhibitory activity against fungal vacuolar-type (H+)-ATPase: little or no inhibitory activity
[2]
  GI50: 9.77 nM
[3]
  GI50: 1.1 nM
[4]
  GI50: 17 nM
[5]
  GI50: 17 nM
[6]
  GI50: 0.851 nM
[7]
  GI50: 282 nM
[8]
  GI50: 11 nM
[9]
  GI50: 1410 nM
[10]
  GI50: 30.9 nM
[11]
  GI50: 0.501 nM
[12]
  GI50: 3.63 nM
[13]
  GI50: 3.63 nM
[14]
  GI50: 1 nM
[15]
  GI50: 3.89 nM
[16]
  GI50: 33.9 nM
[17]
  GI50: 0.977 nM
[18]
  GI50: 4.57 nM
[19]
  GI50: 12.9 nM
[20]
  GI50: 8.51 nM
[21]
  GI50: 2.88 nM
[22]
  GI50: 0.776 nM
[23]
  GI50: 100 nM
[24]
  GI50: 4.17 nM
[25]
  GI50: 5.01 nM
[26]
  GI50: 3.39 nM
[27]
  GI50: 28.2 nM
[28]
  GI50: 12.9 nM
[29]
  GI50: 3.72 nM
[30]
  GI50: 1.82 nM
[31]
  GI50: 10 nM
[32]
  GI50: 12 nM

Source: patent publication US7381744B1, “Method of treating osteoporosis comprising vacuolar-type (H+)-ATPase-inhibiting compounds” (The United States of America as represented by the …, priority 1999, dated 2008)
